{
  "source": "patent US20260144805A1",
  "about": "“CANNABIDIOL COMPOSITIONS FOR USE IN THE TREATMENT OF NEURODEGENERATIVE AND NEUROLOGICAL DISORDERS” (JAZZ PHARMACEUTICALS RESEARCH UK LIMITED, priority 2022, published 2026)",
  "key": {"rat VPA model": {"system": "rat VPA model", "experiment": "Social interaction: Social Approach Avoidance (SAA) P60 in rat VPA model (Example 5; DS = DS-E)", "assay_type": "in vivo", "conditions": "adult; risperidone 0.125 mg/kg", "procedure": "Time-mated female Wistar rats were administered a single dose of valproic acid (VPA, 600 mg/kg, i.p.) on gestational day 12.5. Male offspring were delivered and confirmation of the VPA induced developmental deficit was rapidly achieved by examination of characteristic “tail kinks” in the juvenile animals. The timeline of experiments is outlined in FIG. 8 and animals were randomly allocated to treatment groups (Table O).\nControl animals were administered sterile saline (0.9% w/v, i.p.) in utero and the vehicle control (ethanol: Kolliphor HS15: saline (1:1:18, v/v/v), i.p.\nThis test was originally used for assessing anxiety-like behavior and subsequently used to assess the social behavior in potential animal models of schizophrenia (Sams-Dodd, 1995 Behav Pharmacol. 6:55) but has been extended to the study of autism models (Schneider and Przewlocki, 2005 Neuropsychopharmacol. 30:80). Therefore, utilising a model based on published designs (Brodkin et al., 2004 Brain Res. 1002:151; Moy et al., 2004 Genes Brain Behav. 3:287) adult animals were assessed for social preference following prenatal VPA exposure whereby a novel animal was introduced to the test arena (n=8). The main outcome measure was the time engaged in active social behavior. Additionally, the time spent in each of the social, non-social and neutral chamber was also determined. […]"}, "rTg4510 mice": {"system": "rTg4510 mice", "experiment": "Open Field (OF) test, locomotor activity in rTg4510 mouse model of Alzheimer's Disease (Example 2; DS = DS-C)", "assay_type": "in vivo", "conditions": "Week 31; for Locomotor activity totals, % vs Wild-type / Locomotor activity totals, % vs rTg4510 / Locomotor activity totals, Mean: Risperidone 0.125 mg/kg i.p.", "procedure": "The aim of this study was to evaluate the efficacy of the present drug substance to modulate the agitation-like behaviours in the rTg4510 regulatable mouse model of Alzheimer's Disease (AD). Animals were tested in a behavioural assay, the Open Field (OF) test to measure locomotor activity (LMA). Activity was first assessed at a 21-week-old baseline to determine whether a hyperactive phenotype (to be used as a proxy for agitation) had developed and was further assessed at 2 subsequent ages in acute and chronic efficacy phases.\nNinety male rTg4510 (CC) mice and 15 wild-type (WW) (Tg(Camk2a-tTA)1Mmay Fgf14^Tg(tetO-MAPT*P301L)4510Kha/J, Jax strain #024854, licensed from the Mayo Clinic, USA) were split into 2 cohorts, 4 weeks apart in age; cohort 1 contained 53 mice (8 WW and 45 CC) and cohort 2 contained 52 mice (7 WW and 45 CC). Relative humidity was 55±15% throughout. Mice were housed in individually ventilated cages on a 12 h/12 h light/dark cycle (lights on at 07.00 h; illumination by red light during the dark phase), at an ambient temperature of 24±4° C. with free access to standard rodent maintenance diet and filtered water. Animals were allowed to acclimatise to the above conditions for 7-10 days prior to the study start. All housing groupings were preserved until the mice were approximately 5 months old, at which point they were singly housed.\nDoxycycline administration: a subset of animals in cohort 2 (n=15) was administered 2× daily oral bolus doses of doxycycline hyclate (10 mg/kg p.o. in 5% glucose, Sigma Aldrich) at 13 weeks of age, followed by continuous exposure to normal lab chow containing 200 ppm doxycycline (Envigo Teklad 2018 TD.00502 no colourants, irradiated and vacuum-packed). All other animals received Envigo Teklad 2018 diet. All diet was provided ad libitum.\nFollowing this regime, animals were evaluated in Open Field (OF) test, before being deeply anaesthetised at the end of the behavioural testing prior to biofluid sampling and tissue harvesting.\nSpecifically, the material was solubilised by the addition of 50 μL of 10% glacial acetic acid and making up to volume with 0.9% saline (Aquapharm, Animal Care, York, UK, Lot 21030311).\nDrug Substance (DS): (i.e., DS-C, See Table B in Example 1) Dosing volume was 10 mL/kg and DS was formulated at the 150 mg/kg dose in a vehicle of ethanol: Kolliphor HS15: 0.9% saline (1:12:87, w/w/v) which were stored at room temperature and added at approximately 60° C. to form solutions which were subsequently stable at room temperature. All dosing formulations were protected from light whenever possible. Dosing solutions were made fresh on the day of dosing, with lower dose formulations being prepared by dilution from the 150 mg/kg dosing solution at room temperature.\nLocomotor activity was assessed by OF test in the light phase of the light-dark cycle at weeks 21, 26 and 31. An automated beam break apparatus (40 cages) was used for the assessment of locomotor activity in rats and mice. Each cage had 4 beams; 1 ‘y’ and 3 ‘x’ which triggered a signal through capacitors when the beam was broken. Signals were collected by data loggers and processed accordingly. All animals were placed in the apparatus and spontaneous activity was assessed for a four-hour period between 0900 and 1300. Animals were then removed from the apparatus and returned to their home cages. LMA assessment was split over 2 consecutive days at each time point.\nFor locomotor data, a log (x+1) transformation was used. For weeks 21 & 26, means and SEMs were calculated from the transformed data. Analysis was by Friedman's two-way nonparametric ANOVA with treatment and test day as factors to compare each group to the WW animals, and (where appropriate) Doxycycline with the untreated rTg4510 group. For week 30, data excluding the WW and Doxycycline groups for each time period were analysed by robust regression model using M estimation, Huber weighting, using the default parameter c=1.345. […]"}},
  "data": [
    {"smiles": "Cc1nc2n(c(=O)c1CCN1CCC(c3noc4cc(F)ccc34)CC1)CCCC2", "note": "[Risperidone]", "values": [
      {"measurement": "time engaged in active social behaviour (VPA deficit)", "setting": "rat VPA model", "value": "not prevented"},
      {"measurement": "Locomotor activity totals, % vs Wild-type", "setting": "rTg4510 mice; 0-30 minutes", "value": 95.7, "unit": "%"},
      {"measurement": "Locomotor activity totals, % vs rTg4510", "setting": "rTg4510 mice; 0-30 minutes", "value": 40.1, "unit": "%"},
      {"measurement": "Locomotor activity totals, Mean", "setting": "rTg4510 mice; 0-30 minutes", "value": 525.99},
      {"measurement": "Locomotor activity totals, % vs Wild-type", "setting": "rTg4510 mice; 0-60 minutes", "value": 135.0, "unit": "%"},
      {"measurement": "Locomotor activity totals, % vs rTg4510", "setting": "rTg4510 mice; 0-60 minutes", "value": 49.4, "unit": "%"},
      {"measurement": "Locomotor activity totals, Mean", "setting": "rTg4510 mice; 0-60 minutes", "value": 1313.59},
      {"measurement": "hyperlocomotion vs rTg4510(vehicle)", "setting": "rTg4510 mice; 0-60 minutes, risperidone 0.125 mg/kg/d", "value": "significantly reversed"},
      {"measurement": "Locomotor activity totals, % vs Wild-type", "setting": "rTg4510 mice; 30-60 minutes", "value": 183.6, "unit": "%"},
      {"measurement": "Locomotor activity totals, % vs rTg4510", "setting": "rTg4510 mice; 30-60 minutes", "value": 46.9, "unit": "%"},
      {"measurement": "Locomotor activity totals, Mean", "setting": "rTg4510 mice; 30-60 minutes", "value": 641.92},
      {"measurement": "Locomotor activity totals, % vs Wild-type", "setting": "rTg4510 mice; 60-90 minutes", "value": 104.9, "unit": "%"},
      {"measurement": "Locomotor activity totals, % vs rTg4510", "setting": "rTg4510 mice; 60-90 minutes", "value": 24.1, "unit": "%"},
      {"measurement": "Locomotor activity totals, Mean", "setting": "rTg4510 mice; 60-90 minutes", "value": 140.56},
      {"measurement": "Locomotor activity totals, % vs Wild-type", "setting": "rTg4510 mice; 60-120 minutes", "value": 134.8, "unit": "%"},
      {"measurement": "Locomotor activity totals, % vs rTg4510", "setting": "rTg4510 mice; 60-120 minutes", "value": 39.8, "unit": "%"},
      {"measurement": "Locomotor activity totals, Mean", "setting": "rTg4510 mice; 60-120 minutes", "value": 384.49},
      {"measurement": "Locomotor activity totals, % vs Wild-type", "setting": "rTg4510 mice; 90-120 minutes", "value": 241.3, "unit": "%"},
      {"measurement": "Locomotor activity totals, % vs rTg4510", "setting": "rTg4510 mice; 90-120 minutes", "value": 79.0, "unit": "%"},
      {"measurement": "Locomotor activity totals, Mean", "setting": "rTg4510 mice; 90-120 minutes", "value": 132.22},
      {"measurement": "Locomotor activity totals, % vs Wild-type", "setting": "rTg4510 mice; 120-150 minutes", "value": 222.8, "unit": "%"},
      {"measurement": "Locomotor activity totals, % vs rTg4510", "setting": "rTg4510 mice; 120-150 minutes", "value": 130.5, "unit": "%"},
      {"measurement": "Locomotor activity totals, Mean", "setting": "rTg4510 mice; 120-150 minutes", "value": 210.31},
      {"measurement": "Locomotor activity totals, % vs Wild-type", "setting": "rTg4510 mice; 150-180 minutes", "value": 399.5, "unit": "%"},
      {"measurement": "Locomotor activity totals, % vs rTg4510", "setting": "rTg4510 mice; 150-180 minutes", "value": 103.1, "unit": "%"},
      {"measurement": "Locomotor activity totals, Mean", "setting": "rTg4510 mice; 150-180 minutes", "value": 82.39},
      {"measurement": "Locomotor activity totals, % vs Wild-type", "setting": "rTg4510 mice; 180-210 minutes", "value": 136.3, "unit": "%"},
      {"measurement": "Locomotor activity totals, % vs rTg4510", "setting": "rTg4510 mice; 180-210 minutes", "value": 103.4, "unit": "%"},
      {"measurement": "Locomotor activity totals, Mean", "setting": "rTg4510 mice; 180-210 minutes", "value": 27.84},
      {"measurement": "Locomotor activity totals, % vs Wild-type", "setting": "rTg4510 mice; 210-240 minutes", "value": 37.5, "unit": "%"},
      {"measurement": "Locomotor activity totals, % vs rTg4510", "setting": "rTg4510 mice; 210-240 minutes", "value": 56.3, "unit": "%"},
      {"measurement": "Locomotor activity totals, Mean", "setting": "rTg4510 mice; 210-240 minutes", "value": 6.99}
    ]}
  ]
}
